Where a SMILES comes first, the peptide text is derived from it. [ ]: non-standard residue; d: D form. The star is where a group is joined. Gly(N-(2R-Ph-propyl)) = C[C@@H](CNCC(=O)O)c1ccccc1; Piperidin1yl(4-NH2,4-COOH) = NC1(C(=O)O)CCN(*)CC1
Tested on: incision pain in rats
Assay: Incision pain test in rats, mechanical pain threshold by Electronic Von Frey
Type: in vivo, rat (male Wistar)
Conditions: for increase of tenderness threshold compared with the model group: i.v., 30 min after injection; for tenderness threshold: tail vein i.v. 24 h after incision, measured 30 min after injection, model group 8.91 g
Method: Example 3. Treatment Effect of the Combination of the KOR Agonist and the MOR Agonist of the Present Invention on Incision Pain in Rats
Compound 5 (prepared according to the method described in Example 1), and compound 20 (prepared according to the method described in Example 2). The compound dose was calculated on bases.
Experimental male Wistar rats were purchased from Shanghai Slac Laboratory Animal Co., Ltd. The rats weighed 140-160 g when purchased, and were fed at 5 rats/cage, under a condition of 12/12 hours light/dark cycle adjustment, a constant temperature of 23±1° C., a humidity of 50-60%, and free access to food and water. After purchase, the animals were subjected to an adaptive feeding for more than 3 days before the experiment was started.
Electronic Von Frey: UGO BASILE, type 38450.
Both compound 5 and compound 20 were formulated with normal saline.
The rats were randomly divided into the following groups according to the body weight: blank control group (n=10), model group (n=10) and drug-administered group (n=50). The drug-administered group was divided into the following groups: compound 20-0.03 mg/kg group (n=10), compound 5-0.3 mg/kg group (n=10), compound 5-0.1 mg/kg+compound 20-0.03 mg/kg group (n=10), compound 5-0.3 mg/kg+compound 20-0.03 mg/kg group (n=10), and compound 5-1 mg/kg+compound 20-0.03 mg/kg group (n=10). The model group and drug-administered group were subjected to an incision surgery. During the surgery, the rats were anesthetized with isoflurane. An incision (1 cm long) passing through the skin and fascia was made with a No. 10 surgical blade in the middle of the left hind paw. The skin was sutured with a 3-0 sterile silk surgical suture. The injured site was disinfected with antibiotic ointment and iodophor. The animals were returned to their original place to recover overnight. After 24 hours, the drug was injected through the tail vein, and the blank control group and the model group were administrated with normal saline two times with an interval of 15 minutes. The group administered with compound 20 alone was intravenously injected with the corresponding dose of compound 20 and the blank solvent for formulating compound 5. The group administered with compound 5 alone was intravenously injected with the corresponding dose of compound 5 and the blank solvent for formulating compound 20. […] The mechanical pain threshold of each group was measured by the Electronic Von Frey 30 minutes after the injection to evaluate the analgesic effect of the drug on the surgical incision pain and the intensity thereof.
The experimental data were expressed as mean±standard deviation (S.D.). […]

Compound	increase of tenderness threshold compared with the model group (compound 5 0.3 mg/kg alone) [%]	tenderness threshold (compound 5 0.3 mg/kg alone) [g]	increase of tenderness threshold compared with the model group (compound 20 0.03 mg/kg alone) [%]	tenderness threshold (compound 20 0.03 mg/kg alone, blank control 14.48 g) [g]
CC(C)C[C@@H](NC(=O)[C@@H](Cc1ccccc1)NC(=O)CNC[C@H](C)c1ccccc1)C(=O)N[C@H](CCCCN)C(=O)N1CCC(N)(C(=O)O)CC1 [compound 5, 4-Amino-1-((2R,5R,8R,14R)-2-(4-aminobutyl)-8-benzyl-5-isobutyl-4,7,10-trioxo-14-phenyl-3,6,9,12-tetraazapentadecan-1-oyl)piperidine-4-carboxylic acid] (H-[Gly(N-(2R-Ph-propyl))][dF][dL][dK]-{Piperidin1yl(4-NH2,4-COOH)})	101.1	17.92	–	–
CCO[C@H]1CC[C@H](NCC[C@@]2(c3ccccn3)CCOC3(CCCC3)C2)c2ccccc21 [compound 20, (1S,4S)-4-Ethoxy-N-(2-((R)-9-(pyridin-2-yl)-6-oxaspiro[4.5]decan-9-yl)ethyl)-1,2,3,4-tetrahydronaphthalen-1-amine]	–	–	62.3	14.46

— US11471503B2, “Use of KOR agonist in combination with MOR agonist in preparing drug for treating pain” (JIANGSU HENGRUI MEDICINE CO., LTD., priority 2017, dated 2022)
